System: HCV 1b-Con1 replicon
Experiment: HCV 1b-Con1 replicon assay in the presence of 5% FBS
Format: cell-based
Details: Hepatitis C virus

SMILES | EC50 [nM]
COC(=O)N[C@H](C(=O)N1CCC[C@H]1c1nc2cc([C@H]3CC[C@H](c4cc5nc([C@@H]6CCCN6C(=O)[C@@H](NC(=O)OC)C(C)C)[nH]c5cc4F)N3c3cc(F)c(N4CCC(C5CCCCC5)CC4)c(F)c3)c(F)cc2[nH]1)C(C)C [Example 4.54, methyl {(2S)-1-[(2S)-2-{5[(2R,5R)-1-[4-(4-cyclohexylpiperidin-1-yl)-3,5-difluorophenyl]-5-{6-fluoro-2-[(2S)-1-{(2S)-2-[(methoxycarbonyl)amino]-3-methylbutanoyl}pyrrolidin-2-yl]-1H-benzimidazol-5-yl}pyrrolidin-2-yl]-6-fluoro-1H-benzimidazol-2-yl}pyrrolidin-1-yl]-3-methyl-1-oxobutan-2-yl}carbamate] | < 0.1
COC(=O)N[C@H](C(=O)N1CCC[C@H]1c1nc2cc([C@@H]3CC[C@@H](c4ccc5[nH]c([C@@H]6CCCN6C(=O)[C@@H](NC(=O)OC)C(C)C)nc5c4)N3c3ccc(N4CCCCC4)c(F)c3)ccc2[nH]1)C(C)C [Example 3.15, methyl {(2S)-1-[(2S)-2-{5-[(2S,55)-1-[3-fluoro-4-(piperidin-1-yl)phenyl]-5-{2-[(2S)-1-{(2S)-2-[(methoxycarbonyl)amino]-3-methylbutanoyl}pyrrolidin-2-yl]-1H-benzimidazol-5-yl}pyrrolidin-2-yl]-1H-benzimidazol-2-yl}pyrrolidin-1-yl]-3-methyl-1-oxobutan-2-yl}carbamate] | < 0.1
COC(=O)N[C@H](C(=O)N1CCC[C@H]1c1nc2cc([C@@H]3CC[C@@H](c4cc5nc([C@@H]6CCCN6C(=O)[C@@H](NC(=O)OC)[C@@H](C)OC)[nH]c5cc4F)N3c3cc(F)c(N4CCN(c5c(F)cccc5F)CC4)c(F)c3)c(F)cc2[nH]1)[C@@H](C)OC [Example 3.49, methyl {(2S,3R)-1-[(2S)-2-{5-[(2S,5S)-1-{4-[4-(2,6-difluorophenyl)piperazin-1-yl]-3,5-difluorophenyl}-5-(6-fluoro-2-{(2S)-1-[N-(methoxycarbonyl)-O-methyl-L-threonyl]pyrrolidin-2-yl}-1H-benzimidazol-5-yl)pyrrolidin-2-yl]-6-fluoro-1H-benzimidazol-2-yl}pyrrolidin-1-yl]-3-methoxy-1-oxobutan-2-yl}carbamate] | < 0.1
COC(=O)N[C@H](C(=O)N1CCC[C@H]1c1nc2cc([C@H]3CC[C@H](c4ccc5[nH]c([C@@H]6CCCN6C(=O)[C@@H](NC(=O)OC)C(C)C)nc5c4)N3c3cc(F)c(N4CCC(C(F)(F)F)CC4)c(F)c3)ccc2[nH]1)C(C)C [Example 5.8, methyl {(2S)-1-[(2S)-2-{5-[(2R,5R)-1-{3,5-difluoro-4-[4-(trifluoromethyl)piperidin-1-yl]phenyl}-5-{2-[(2S)-1-{(2S)-2-[(methoxycarbonyl)amino]-3-methylbutanoyl}pyrrolidin-2-yl]-1H-benzimidazol-5-yl}pyrrolidin-2-yl]-1H-benzimidazol-2-yl}pyrrolidin-1-yl]-3-methyl-1-oxobutan-2-yl}carbamate] | < 0.1
COC(=O)N[C@H](C(=O)N1CCC[C@H]1c1nc2cc([C@H]3CC[C@@H](c4cc5nc([C@@H]6CCCN6C(=O)[C@@H](NC(=O)OC)C(C)C)[nH]c5cc4F)N3c3cnc(N4CCCCC4)nc3)c(F)cc2[nH]1)C(C)C [Example 3.47, methyl {(2S)-1-[(2S)-2-(6-fluoro-5-{(2R,5S)-5-{6-fluoro-2-[(2S)-1-{(2S)-2-[(methoxycarbonyl)amino]-3-methylbutanoyl}pyrrolidin-2-yl]-1H-benzimidazol-5-yl}-1-[2-(piperidin-1-yl)pyrimidin-5-yl]pyrrolidin-2-yl}-1H-benzimidazol-2-yl)pyrrolidin-1-yl]-3-methyl-1-oxobutan-2-yl}carbamate] | < 0.1
COC(=O)N[C@H](C(=O)N1CCC[C@H]1c1ncc(-c2cccc(C3(c4cccc(-c5cnc([C@@H]6CCCN6C(=O)[C@@H](NC(=O)OC)C(C)C)[nH]5)c4)CN(c4ccccc4)C3)c2)[nH]1)C(C)C [Example 12.2, methyl {(2S)-1-[(2S)-2-(5-{3-[3-(3-{2-[(2S)-1-{(2S)-2-[(methoxycarbonyl)amino]-3-methylbutanoyl}pyrrolidin-2-yl]-1H-imidazol-5-yl}phenyl)-1-phenylazetidin-3-yl]phenyl}-1H-imidazol-2-yl)pyrrolidin-1-yl]-3-methyl-1-oxobutan-2-yl}carbamate] | 1 to 10
COCCOc1ccc(N2[C@@H](c3ccc4[nH]c([C@@H]5CCCN5C(=O)[C@@H](NC(=O)OC)C(C)C)nc4c3)CC[C@@H]2c2ccc3[nH]c([C@@H]4CCCN4C(=O)[C@@H](NC(=O)OC)C(C)C)nc3c2)cc1 [Example 3.3, methyl {(2S)-1-[(2S)-2-(5-{(2R,5R)-5-{2-[(2S)-1-{(2S)-2-[(methoxycarbonyl)amino]-3-methylbutanoyl}pyrrolidin-2-yl]-1H-benzimidazol-5-yl}-1-[4-(2-methoxyethoxy)phenyl]pyrrolidin-2-yl}-1H-benzimidazol-2-yl)pyrrolidin-1-yl]-3-methyl-1-oxobutan-2-yl}carbamate] | 0.1 to 1
COC(=O)N[C@H](C(=O)N1CCC[C@H]1c1nc2cc([C@H]3CC[C@H](c4ccc5[nH]c([C@@H]6CCCN6C(=O)[C@@H](NC(=O)OC)C6CCOCC6)nc5c4)N3c3ccc(N4CCC(c5ccccc5)CC4)c(F)c3)ccc2[nH]1)C(C)C [Example 3.21, methyl [(1S)-2-[(2S)-2-{5-[(2R,5R)-1-[3-fluoro-4-(4-phenylpiperidin-1-yl)phenyl]-5-{2-[(2S)-1-{(2S)-2-[(methoxycarbonyl)amino]-3-methylbutanoyl}pyrrolidin-2-yl]-1H-benzimidazol-5-yl}pyrrolidin-2-yl]-1H-benzimidazol-2-yl}pyrrolidin-1-yl]-2-oxo-1-(tetrahydro-2H-pyran-4-yl)ethyl]carbamate] | < 0.1
O=C([C@@H]1CCCO1)N1CCC[C@H]1c1nc2cc([C@H]3CC[C@H](c4ccc5[nH]c([C@@H]6CCCN6C(=O)[C@@H]6CCCO6)nc5c4)N3c3cc(F)c(N4CCC(c5ccccc5)CC4)c(F)c3)ccc2[nH]1 [Example 3.31, ({(2R,5R)-1-[3,5-difluoro-4-(4-phenylpiperidin-1-yl)phenyl]pyrrolidine-2,5-diyl}bis[1H-benzimidazole-5,2-diyl(2S)pyrrolidine-2,1-diyl])bis[(2S)-tetrahydrofuran-2-ylmethanone]] | < 0.1
COC(=O)N[C@H](C(=O)N1CCC[C@H]1c1nc2cc([C@H]3CC[C@H](c4ccc5[nH]c([C@@H]6CCCN6C(=O)[C@@H](NC(=O)OC)C(C)C)nc5c4)N3c3cc(F)c(N4CC=C(c5ccccc5)CC4)c(F)c3)ccc2[nH]1)C(C)C [Example 5.15, methyl {(2S)-1-[(2S)-2-{5-[(2R,5R)-1-[3,5-difluoro-4-(4-phenyl-3,6-dihydropyridin-1(2H)-yl)phenyl]-5-{2-[(2S)-1-{(2S)-2-[(methoxycarbonyl)amino]-3-methylbutanoyl}pyrrolidin-2-yl]-1H-benzimidazol-5-yl}pyrrolidin-2-yl]-1H-benzimidazol-2-yl}pyrrolidin-1-yl]-3-methyl-1-oxobutan-2-yl}carbamate] | < 0.1
COC(=O)N[C@H](C(=O)N1CCC[C@H]1c1nc2cc([C@H]3CC[C@H](c4ccc5[nH]c([C@@H]6CCCN6C(=O)[C@@H](NC(=O)OC)C(C)C)nc5c4)N3c3cc(Cl)c(N4CCCCC4)c(Cl)c3)ccc2[nH]1)C(C)C [Example 4.4, methyl {(2S)-1-[(2S)-2-{5-[(2R,5R)-1-[3,5-dichloro-4-(piperidin-1-yl)phenyl]-5-{2-[(2S)-1-{(2S)-2-[(methoxycarbonyl)amino]-3-methylbutanoyl}pyrrolidin-2-yl]-1H-benzimidazol-5-yl}pyrrolidin-2-yl]-1H-benzimidazol-2-yl}pyrrolidin-1-yl]-3-methyl-1-oxobutan-2-yl}carbamate] | < 0.1
COC(=O)N[C@H](C(=O)N1CCC[C@H]1c1nc2cc([C@H]3CC[C@H](c4ccc5[nH]c([C@@H]6CCCN6C(=O)[C@@H](NC(=O)OC)C6Cc7ccccc7C6)nc5c4)N3c3cc(F)c(N4CCC(c5ccccc5)CC4)c(F)c3)ccc2[nH]1)C1Cc2ccccc2C1 [Example 3.27, dimethyl ({(2R,5R)-1-[3,5-difluoro-4-(4-phenylpiperidin-1-yl)phenyl]pyrrolidine-2,5-diyl}bis{1H-benzimidazole-5,2-diyl(2S)pyrrolidine-2,1-diyl[(1S)-1-(2,3-dihydro-1H-inden-2-yl)-2-oxoethane-2,1-diyl]})biscarbamate] | < 0.1
COC(=O)N[C@H](C(=O)N1CCC[C@H]1c1nc2ccc([C@H]3CC[C@H](c4ccc5nc([C@@H]6CCCN6C(=O)[C@@H](NC(=O)OC)C(C)C)[nH]c5c4)N3c3cc(F)c(N4CCC5(CCCC5)CC4)c(F)c3)cc2[nH]1)C(C)C [Example 2.11, methyl {(2S)-1-[(2S)-2-{5-[(2R,5R)-1-[4-(8-azaspiro[4.5]dec-8-yl)-3,5-difluorophenyl]-5-{2-[(2S)-1-{(2S)-2-[(methoxycarbonyl)amino]-3-methylbutanoyl}pyrrolidin-2-yl]-1H-benzimidazol-5-yl}pyrrolidin-2-yl]-1H-benzimidazol-2-yl}pyrrolidin-1-yl]-3-methyl-1-oxobutan-2-yl}carbamate] | < 0.1
COC(=O)N[C@H](C(=O)N1CCC[C@H]1c1nc2cc([C@H]3CC[C@H](c4cc5nc([C@@H]6CCCN6C(=O)[C@@H](NC(=O)OC)C6CCOCC6)[nH]c5cc4F)N3c3cc(F)c(N4CCC(c5ccccc5)CC4)c(F)c3)c(F)cc2[nH]1)C1CCOCC1 [Example 4.39, dimethyl ({(2R,5R)-1-[3,5-difluoro-4-(4-phenylpiperidin-1-yl)phenyl]pyrrolidine-2,5-diyl}bis{(6-fluoro-1H-benzimidazole-5,2-diyl)(2S)pyrrolidine-2,1-diyl[(1S)-2-oxo-1-(tetrahydro-2H-pyran-4-yl)ethane-2,1-diyl]})biscarbamate] | < 0.1
